The values that follow come from US11420960B2, “Use of 5-oxazolidine-2,4-dione C-glycoside derivatives as moisturizer for the skin” (L'OREAL, priority 2018, dated 2022).

This experiment relates to isolated stratum corneum (SC). Briefly: Evaluation of the moisturizing potential on isolated stratum corneum by measurement with a Corneometer. To be noted: for Mean DHCMiactive agent corr: 5% by weight in water/n-propanol (80/20), 5 μl/cm2 on SC, T4h vs T0h, 75% relative humidity, 25° C., relative percentage with carrier control 0% and glycerol 100%; for dielectric capacitance of the stratum corneum (SC): compounds at 5% by weight. The protocol:
B): Evaluation of the Moisturizing Potential on Isolated Stratum Corneum by Measurement with a Corneometer
A test was performed to evaluate the moisturizing potential of the compounds of the invention formulated in an aqueous solution to an amount of 5% by weight relative to the total weight of the composition.
The technique makes it possible to measure the dielectric capacitance of the stratum corneum (SC), which depends on the mean dielectric permittivity value of the tissue. The dielectric permittivity varies greatly with the amount of water contained in the SC.
The SC samples are conditioned at 75% relative humidity and at 25° C. before/during the measurements and the treatment. The capacitance measurement is performed using a Corneometer™ (Courage & Khazaka, Germany).
The compound tested, compounds 1, 2 and 3 according to the invention or a moisturizing active agent such as glycerol (humectant positive control), is dissolved in a water/n-propanol mixture (80/20) and the solution is deposited onto the SC at a rate of 5 μl/cm^2 followed by air-drying for a total duration of 4 h.
A measurement is taken at T0h, before the treatment, and a measurement T4h is taken after total drying of the treatment.
The variation in the level of moisturization between T0h and T4h is calculated for each condition tested and compared to the references (carrier control and positive control) and to its T0h. The experiments are carried out on at least two different batches of SC and three samples of SC per condition tested.
The variation in the corneometer signal (HCM) after treatment is calculated for each SC sample: DHCMi=HCMi(T4h)−HCMi(T0h).
The results are then expressed as relative percentage in relation to the references, the carrier control and the glycerol positive control corresponding to a level of 0% and 100%, respectively.
Thus, for each experiment, the following are measured: • For the carrier control: DHCMicarrier=HCMicarrier(T4h)−HCMicarrier(T0h) • For the positive control: DHCMiglycerol=HCMiglycerol(T4h)−HCMiglycerol(T0h) • For the active agent: DHCMiactive agent=HCMiactive agent(T4h)−HCMiactive agent(T0h) • % DHCMiactive agent=(DHCMiactive agent−DHCMicarrier)/((DHCMiglycerol−DHCMicarrier) • As specified above, according to this mode of calculation: • % DHCMicarrier=0% • % DHCMiglycerol=100%
The moisturizing potential of an active agent is therefore determined as relative percentage in relation to the positive control.

Take `O=C1N=C(O)C(C2O[C@H](CO)[C@@H](O)[C@H](O)[C@H]2O)O1` (some centres unmarked) [Compound 1]: the “Mean DHCMiactive agent corr” value is reported as 88%. Besides, the “dielectric capacitance of the stratum corneum (SC) in comparison with glycerol at the same concentration” value (in words, 5% by weight) is “of the same order”. For the same compound, the “dielectric capacitance of the stratum corneum (SC)” value (in words) is on record as “high”.

`CN1C(=O)OC(C2O[C@H](CO)[C@@H](O)[C@H](O)[C@H]2O)C1=O` (some centres unmarked) [Compound 3]: the “Mean DHCMiactive agent corr” value is on record as 51%. For the setting “in words”, the “dielectric capacitance of the stratum corneum (SC)” value is reported as “high”.

On to `O=C1N=C(O)C(C2OC[C@@H](O)[C@H](O)[C@H]2O)O1` (some centres unmarked) [Compound 2], for which the “Mean DHCMiactive agent corr” value was 63%. The “dielectric capacitance of the stratum corneum (SC)” value (in words) is “high”.

Take `OCC(O)CO` [Glycerol, glycerol, reference compound]: the “Mean DHCMiactive agent corr” value amounted to 100%.
